Data set [1] is described as follows: Microsomal stability of LaKe, human. The format is in vitro ADME. The method, then: The in vitro stability of LaKe was evaluated following incubation in simulated gastric fluid (SGF), simulated intestinal fluid (SIF), fresh and frozen plasma (rats and humans, respectively), and the presence of hepatocytes (rats and humans) and liver microsomes (rats and humans). At the chosen time points, the mixtures were analyzed by LC-MS/MS to quantify the remaining LaKe and all assays included at least one control compound with known pharmacokinetic properties.
Hepatocyte stability of LaKe
Cells: Rat hepatocytes (BioreclamationIVT, M0005); Human hepatocytes (BioreclamationIVT, X008001) Thawing Medium: Williams’ Medium E containing 5% fetal bovine serum and 30% Percoll solution and other […]
Incubation Medium: Williams’ Medium E (no phenol red) containing 2 mM L-Glutamine and 25 mM HEPES.
Stop Solution: Acetonitrile containing 200 ng/mL tolbutamide and labetalol as internal standards.
Dilution Solution: Ultra-pure water.
Preparation of Quenching Plate: Transfer 125 μL of stop solution (acetonitrile containing 200 ng/mL tolbutamide and 200 ng/mL labetalol as internal standards) in a set of pre-labeled 96-well plates.
Cryopreserved cells were thawed, isolated and suspended in Incubation Medium, then diluted with pre-warmed Incubation Medium to 0.5 × 10^6 cells/mL. 198 μL of pre-warmed cell suspensions were added in 96-well plates. […]

Data set [2] in a line: In vitro stability in simulated gastric fluid. The format is in vitro ADME. The settings on record: simulated gastric fluid (SGF), pH = 1. The procedure: The in vitro stability of LaKe was evaluated following incubation in simulated gastric fluid (SGF), simulated intestinal fluid (SIF), fresh and frozen plasma (rats and humans, respectively), and the presence of hepatocytes (rats and humans) and liver microsomes (rats and humans). At the chosen time points, the mixtures were analyzed by LC-MS/MS to quantify the remaining LaKe and all assays included at least one control compound with known pharmacokinetic properties. […]
centrifuged at 4000 rpm, 4℃ for 20 min. 60 μL of supernatant was mixed with 180 μL of purified water for subsequent LC/MS/MS analysis.
LC-MS/MS Condition: ACQUITY UPLC BEH C18 1.7um 2.1 * 50mm Column (Part No.186002350). Mobile phase: A: 0.1% Formic Acid in Water; B: 0.1% Formic Acid in ACN. […]
Samples were incubated at 37 ℃, 600 rpm for the appointed time. At the chosen time points (60, 120, 360, 1440 minutes) samples were immediately mixed with 400 μL of cold acetonitrile containing 200 ng/mL tolbutamide and labetalol (internal standards). 200 μL of suspension was removed and mixed completely with 400 μL of cold acetonitrile containing 200 ng/mL tolbutamide and labetalol again. The T0 samples were prepared by transferring 198 μL of SIF solution to corresponding well after adding 400 μL of cold acetonitrile containing 200 ng/mL tolbutamide and then mixing completely. The samples were […]
Stability of LaKe in plasma […]

SMILES strings stand for the structures. Bounds are passed on as bounds.

Usually half-life stands for the time needed for the level to fall by half in the phase considered. The low end stands for fast loss, the high end for slow loss. In the case of `CC(O)CCOC(=O)C(C)O` (stereo not drawn) [LaKe, 3-hydroxybutyl 2-hydroxypropanoate], the LaKe remaining in data set [1] (human liver microsomes, absence of NADPH, after 60 min) came to 82%. Further, in data set [1] (presence of NADPH), the “turnover in liver microsomes” value was “underwent turnover”. Moreover, the half-life in data set [2] was above 12 h.

These data come from paper PMC11403612, “Preparation and Preclinical Characterization of a Simple Ester for Dual Exogenous Supply of Lactate and Beta-hydroxybutyrate” (Journal of Agricultural and Food Chemistry, 2024).
